Source: US9808434B2, “Compound for treating cancer and diabetes” (CITY OF HOPE, priority 2011, dated 2017)
Entries after “also recorded” stand apart in the source; their conditions may differ.

How the values were obtained:
[1] = tested on: HepG2 liver carcinoma cells; assay: Intracellular AMP:ATP ratio in HepG2; format: cell-based, human; details: 5 μM, 1 h
Description: ATP production from cells treated with test compounds were measured using the Luminescent ATP Detection Assay Kit. AMP, ATP and ADP were measured by UV-HPLC.
Total intracellular ATP production in cells treated with either 5 μM COH-SR4 or 5 μM FCCP was measured by bioluminescence assay and expressed as percentage of time-matched vehicle (DMSO) control (FIG. 84A). Intracellular AMP: ATP ratios increased in HepG2 liver carcinoma cells following 1 h treatment with either 5 μM COH-SR4 or 5 μM FCCP (FIG. 84B) and in liver of db/db mice treated with COH-SR4 (5 mg/kg B.W.) for 5 weeks (FIG. 84C). All data represented are mean±SEM, *P<0.05.

H1417 = assay: Colony formation assay, H1417; format: cell-based, human; details: 1.5 μM
Description: Cell survival was evaluated using a standard colony-forming assay. In total, 1×10^5 cells/mL were incubated with COH-SR4 (1.5 μM or 5 μM) or elesclomol (5 μM) for 24 h, and aliquots of 50 or 100 μL were added to 60 mm size petri dishes, containing 4 mL culture medium. After 7 or 10 days, adherent colonies were fixed, stained with 0.5% methylene blue for 30 min and colonies were counted using the Innotech Alpha Imager HP (91).
The effect of COH-SR4 was first examined in a NCI panel of cancer cell lines, the results of which indicated good activity of COH-SR4 towards lung cancer (FIG. 78A). […] Values are presented as mean±SD from two separate determinations with eight replicates each (n=16) (FIG. 78B). The COH-SR4 treatment exerted a significant inhibitory effect on the survival of lung cancer cells [IC50: H1417 cells-1.2±0.2 μM, H1618 cells-1.5±0.2 μM, H358 cells-2.1±0.2 μM and H520 cells-2.4±0.3 μM]. […] Following initial screening for the anticancer activity of COH-SR4, the effect of COH-SR4 on clonogenic potential was studied. Standard colony-forming assay was performed and the colonies were counted using Innotech Alpha Imager HP. […] The effect of COH-SR4 on induction of apoptosis was further investigated. […] TUNEL assay was performed using Promega fluorescence detection kit and examined using Zeiss LSM 510 META laser-scanning fluorescence microscope with filters 520 and 620 nm. […]

3T3-L1 cells = assay: Intracellular triglyceride contents, AdipoRed Assay; format: cell-based, mouse; details: 7 days in DM + compound
Description: Intracellular triglyceride contents were measured using AdipoRed Assay™ and the results were shown in relative fluorescence units (RFU) in FIG. 5.
3T3-L1 preadipocytes cells were treated with differentiating media (DM) with COH-SR4 (1 μM, 3 μM, or 5 μM) or without for 7 days. […] As used in FIG. 9C, U=undifferentiated, D=differentiated with cocktail media.

A2058 human melanoma = format: in vivo
Description: For melanoma studies, C57B mice (for syngeneic B16-F0 mouse melanoma model) and Hsd: Athymic nude nu/nu mice (for A2058 human melanoma mouse xenografts model), were obtained from Harlan, Indianapolis, Ind. All animal experiments were carried out in accordance with a protocol approved by the Institutional Animal Care and Use Committee (IACUC). […] All animals were injected with 2×10^6 melanoma cells suspensions in 100 μL of PBS, subcutaneously into one flank of each mouse. Treatment was started 10 days after the implantation to see palpable tumor growth. […] Control groups were treated with 200 μL corn oil by oral gavage alternate days. Animals were examined daily for signs of tumor growth. Tumors were measured in two dimensions using calipers. Photographs of animals were taken at day 1, day 10, day 14, day 18, day 20, day 30, and day 51 after subcutaneous injection, are shown for all groups. Photographs of tumors were also taken at day 20 (for syngeneic model), and at day 51 (for xenograft model).
C57B mice (for syngeneic B16-F0 mouse melanoma model) and Hsd: Athymic nude nu/nu mice (for A2058 human melanoma mouse xenografts model), were used for testing the impact of oral administration of COH-SR4 on melanoma progression in vivo models. […] All animals were injected with 2×10^6 melanoma cells suspensions in 100 μL of PBS, subcutaneously into one flank of each mouse. Treatment was started 10 days after the implantation of melanoma cells. […] Control groups were treated with 200 μL corn oil by oral gavage alternate day. Animals were examined daily for signs of tumor growth and body weights were recorded. […] Animals were examined daily for signs of tumor growth. Tumors were measured in two dimensions using calipers. […] Weights and photographs of tumors were also taken at day 20 (for syngeneic model), and at day 51 (for xenograft model) (FIG. 70B). […] Tumors were measured in two dimensions using calipers and time-course analysis of tumor regression was performed during the study. […]

AMPK = AMPK activation in HL-60 cells, Western blot; format: cell-based, human; details: 1 hour
Description: Activation of AMPK was associated with the phosphorylation of the α-subunit on Thr-172 of as assessed using phospho-specific antibodies (FIGS. 10A-B). AMPK activation also leads to the increased phosphorylation of the target protein acetyl-CoA carboxylase (ACC) (FIG. 10B).
Cells of each cell lines (Hela, HL-60, and 3T3-L1) were treated for 1 hour with a test compound (COH-SR4, COH-SR9, COH-SR16, or COH-SR18) at a concentration of 1 μM, 3 μM, or 5 μM, or AICAR (5-aminoimidazole-4-carboxamideriboside, an AMPK agonist used as positive control) at a concentration of 500 μM, or none of the above (the untreated cells as negative control). Total cell lysates from the untreated cells and the cells treated with a test compound or AICAR were analyzed by Western blot assay using specific antibodies against phospho-AMPK, phospho-ACC, total AMPK and total ACC.

SMILES: O=C(Nc1cc(Cl)cc(Cl)c1)Nc1cc(Cl)cc(Cl)c1 [COH-SR4, 1,3-bis(3,5-dichlorophenyl) urea]
- intracellular AMP:ATP ratios [1]: increased
- colony formation (H1417): 39±8%
- intracellular triglyceride contents (AdipoRed Assay) (3T3-L1 cells): decreased intracellular triglyceride contents; also recorded: dose-dependently reduced
- tumor regression and toxicity at higher dosage (A2058 human melanoma; 20 mg/kg b.w.): no further improvement in tumor regression and no toxicity was observed
- tumor weight (A2058 human melanoma; day 51, control 1.91±0.3 g): 0.7 ± 0.1 g
- survival (still alive) (A2058 human melanoma; vehicle censored by day 51±3): ≥ 88 days
- AMPK activation (AMPK): activated AMPK
